Measured values taken from ChEMBL document CHEMBL2146473 (Bioorg Med Chem, 2012).
One block for each compound: values may come before it. Active and inactive are the calls of the source. The rule behind the calls is not given here.

What was measured:
Dipeptidyl peptidase 4 = Dipeptidyl peptidase 4 (Rattus norvegicus, UniProt P14740); format: cell-free, Plasma
Description: Inhibition of DPP4 in rat plasma using GLY-Pro-MCA as substrate after 60 mins by fluorescence assay

Rattus norvegicus [1] = organism: Rattus norvegicus; experiment: animal or person; format: functional; settings: Wistar, Plasma, po, 0.5 h
Rattus norvegicus [2] = organism: Rattus norvegicus; experiment: animal or person; format: functional; settings: Wistar, Plasma, po, 9 h
Rattus norvegicus [3] = experiment: Antidiabetic activity in Zucker fatty rat assessed as decrease in plasma glucose excursion at 0.03 to 1 mg/kg, po administered 30 mins prior to glucose challenge by oral glucose tolerance test; format: functional, organism-based
Rattus norvegicus [4] = experiment: Antidiabetic activity in Zucker fatty rat assessed as decrease in AUC (0 to 60 mins) of plasma glucose level at 0.03 to 1 mg/kg, po administered 30 mins prior to glucose challenge by oral glucose tolerance test; format: functional, organism-based
Rattus norvegicus [5] = experiment: Antidiabetic activity in Zucker fatty rat assessed as normalization of glucose excursion at 0.03 mg/kg, po administered 30 mins prior to glucose challenge by oral glucose tolerance test relative to lean-control; format: functional, organism-based; design: dose 0.03 mg/kg
Rattus norvegicus [6] = experiment: Inhibition of DPP4 in po dosed Wistar rat plasma using GLY-Pro-MCA as substrate after 48 hrs by fluorescence assay; format: functional, organism-based
Rattus norvegicus [7] = experiment: Sustained inhibition of DPP4 in Wistar rat plasma using GLY-Pro-MCA as substrate at 1 mg/kg, po measured up to 24 hrs by fluorescence assay; format: functional, organism-based; design: dose 1 mg/kg
[8] = AUC (0 to infinity) in monkey at 1 mg/kg, po; format: ADME, organism-based, Macaca mulatta; design: time infinity, dose 1 mg/kg, route oral; settings: rhesus monkey, plasma
[9] = Oral bioavailability in rat at 0.1 mg/kg; format: ADME, organism-based; settings: in vivo
[10] = AUC (0 to infinity) in monkey at 0.1 mg/kg, po; format: ADME, organism-based, Macaca mulatta; design: time infinity, dose 0.1 mg/kg, route oral; settings: rhesus monkey, plasma
[11] = AUC (0 to infinity) in monkey at 0.3 mg/kg, po; format: ADME, organism-based, Macaca mulatta; design: time infinity, dose 0.3 mg/kg, route oral; settings: rhesus monkey, plasma
[12] = AUC (0 to infinity) in rat at 1 mg/kg, po; format: ADME, organism-based; design: time infinity, dose 1 mg/kg, route oral; settings: plasma
[13] = Tmax in rat at 0.1 mg/kg, po; format: ADME, organism-based; design: dose 0.1 mg/kg, route oral; settings: in vivo
[14] = Tmax in rat at 0.3 mg/kg, po; format: ADME, organism-based; design: dose 0.3 mg/kg, route oral; settings: in vivo
[15] = Tmax in rat at 1 mg/kg, po; format: ADME, organism-based; design: dose 1 mg/kg, route oral; settings: in vivo
[16] = Tmax in monkey at 0.1 mg/kg, po; format: ADME, organism-based, Macaca mulatta; design: dose 0.1 mg/kg, route oral; settings: rhesus monkey, in vivo
[17] = Tmax in monkey at 0.3 mg/kg, po; format: ADME, organism-based, Macaca mulatta; design: dose 0.3 mg/kg, route oral; settings: rhesus monkey, in vivo
[18] = Tmax in monkey at 1 mg/kg, po; format: ADME, organism-based, Macaca mulatta; design: dose 1 mg/kg, route oral; settings: rhesus monkey, in vivo
[19] = Cmax in rat at 0.1 mg/kg, po; format: ADME, organism-based; design: dose 0.1 mg/kg, route oral; settings: in vivo
[20] = Cmax in rat at 0.3 mg/kg, po; format: ADME, organism-based; design: dose 0.3 mg/kg, route oral; settings: in vivo
[21] = Cmax in rat at 1 mg/kg, po; format: ADME, organism-based; design: dose 1 mg/kg, route oral; settings: in vivo
[22] = Cmax in monkey at 0.1 mg/kg, po; format: ADME, organism-based, Macaca mulatta; design: dose 0.1 mg/kg, route oral; settings: rhesus monkey, in vivo
[23] = Cmax in monkey at 0.3 mg/kg, po; format: ADME, organism-based, Macaca mulatta; design: dose 0.3 mg/kg, route oral; settings: rhesus monkey, in vivo
[24] = Cmax in monkey at 1 mg/kg, po; format: ADME, organism-based, Macaca mulatta; design: dose 1 mg/kg, route oral; settings: rhesus monkey, in vivo
[25] = Terminal half life in rat at 0.1 mg/kg, po; format: ADME, organism-based; design: dose 0.1 mg/kg, route oral; settings: in vivo, read-out: beta t1/2 (converted)
[26] = Terminal half life in rat at 0.3 mg/kg, po; format: ADME, organism-based; design: dose 0.3 mg/kg, route oral; settings: in vivo, read-out: beta t1/2 (converted)
[27] = Terminal half life in rat at 1 mg/kg, po; format: ADME, organism-based; design: dose 1 mg/kg, route oral; settings: in vivo, read-out: beta t1/2 (converted)
[28] = Terminal half life in monkey at 0.1 mg/kg, po; format: ADME, organism-based, Macaca mulatta; design: dose 0.1 mg/kg, route oral; settings: rhesus monkey, in vivo, read-out: beta t1/2 (converted)
[29] = Terminal half life in monkey at 0.3 mg/kg, po; format: ADME, organism-based, Macaca mulatta; design: dose 0.3 mg/kg, route oral; settings: rhesus monkey, in vivo, read-out: beta t1/2 (converted)
[30] = Terminal half life in monkey at 1 mg/kg, po; format: ADME, organism-based, Macaca mulatta; design: dose 1 mg/kg, route oral; settings: rhesus monkey, in vivo, read-out: beta t1/2 (converted)
[31] = AUC (0 to infinity) in rat at 0.1 mg/kg, po; format: ADME, organism-based; design: dose 0.1 mg/kg, route oral, time infinity; settings: plasma
[32] = AUC (0 to infinity) in rat at 0.3 mg/kg, po; format: ADME, organism-based; design: time infinity, dose 0.3 mg/kg, route oral; settings: plasma
[33] = Oral bioavailability in rat at 0.3 mg/kg; format: ADME, organism-based; settings: in vivo
[34] = Oral bioavailability in rat at 1 mg/kg; format: ADME, organism-based; settings: in vivo
[35] = Oral bioavailability in monkey at 0.1 mg/kg; format: ADME, organism-based, Macaca mulatta; settings: rhesus monkey, in vivo
[36] = Oral bioavailability in monkey at 0.3 mg/kg; format: ADME, organism-based, Macaca mulatta; settings: rhesus monkey, in vivo
[37] = Oral bioavailability in monkey at 1 mg/kg; format: ADME, organism-based, Macaca mulatta; settings: rhesus monkey, in vivo

Chain of Dipeptidyl peptidase 4 (P14740 whole entry): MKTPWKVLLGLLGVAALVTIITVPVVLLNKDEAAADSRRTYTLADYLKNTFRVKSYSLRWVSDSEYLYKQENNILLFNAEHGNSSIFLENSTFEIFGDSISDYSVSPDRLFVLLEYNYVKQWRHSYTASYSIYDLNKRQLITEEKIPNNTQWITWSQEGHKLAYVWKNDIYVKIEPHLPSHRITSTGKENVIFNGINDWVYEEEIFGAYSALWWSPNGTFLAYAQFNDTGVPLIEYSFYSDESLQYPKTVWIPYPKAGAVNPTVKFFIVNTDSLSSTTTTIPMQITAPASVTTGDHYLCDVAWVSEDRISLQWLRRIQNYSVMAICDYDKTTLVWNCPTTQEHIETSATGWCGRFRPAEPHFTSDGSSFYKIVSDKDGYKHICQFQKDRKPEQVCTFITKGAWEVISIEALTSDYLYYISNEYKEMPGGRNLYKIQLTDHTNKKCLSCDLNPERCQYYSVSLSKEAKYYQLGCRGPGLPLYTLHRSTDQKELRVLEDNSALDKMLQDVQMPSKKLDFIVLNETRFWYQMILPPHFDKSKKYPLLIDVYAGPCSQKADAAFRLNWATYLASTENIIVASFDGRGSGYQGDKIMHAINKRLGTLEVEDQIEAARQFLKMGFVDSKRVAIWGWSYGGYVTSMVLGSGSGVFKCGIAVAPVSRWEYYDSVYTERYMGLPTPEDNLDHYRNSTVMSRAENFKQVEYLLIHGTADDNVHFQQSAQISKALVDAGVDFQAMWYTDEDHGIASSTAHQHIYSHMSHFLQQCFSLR

Compound: O=C([C@@H]1C[C@H](N2CCN(c3ccnc4ccccc34)CC2)CN1)N1CCSC1
- inhibition in vivo at 3 µmol/kg (Rattus norvegicus [1]): 29.7%
- inhibition in vivo at 3 µmol/kg (Rattus norvegicus [2]): 12.9%

Compound: Cc1cc(N2CCN([C@@H]3CN[C@H](C(=O)N4CCSC4)C3)CC2)n(-c2ccc(F)cc2)n1
- IC50 (Dipeptidyl peptidase 4): 2.3 nM

Compound: O=C([C@@H]1C[C@H](N2CCN(c3nnnn3C3CCCCC3)CC2)CN1)N1CCSC1
- IC50 (Dipeptidyl peptidase 4): 3.1 nM
- inhibition in vivo at 3 µmol/kg (Rattus norvegicus [1]): 25.6%
- inhibition in vivo at 3 µmol/kg (Rattus norvegicus [2]): 10.5%

Compound: Cc1cc(N2CCN([C@@H]3CN[C@H](C(=O)N4CCSC4)C3)CC2)n(-c2ccccc2)n1
- Activity (Rattus norvegicus [3]): Active
- Activity (Rattus norvegicus [4]): Active
- Activity (Rattus norvegicus [5]): Active
- inhibition (Rattus norvegicus [6]): Dose-dependent effect
- inhibition (Rattus norvegicus [7]): Active

Compound: O=C([C@@H]1C[C@H](N2CCN(c3nccn3-c3ccccc3)CC2)CN1)N1CCSC1
- IC50 (Dipeptidyl peptidase 4): 0.19 nM
- inhibition in vivo at 3 µmol/kg (Rattus norvegicus [1]): 59.3%
- inhibition in vivo at 3 µmol/kg (Rattus norvegicus [2]): 58%

Compound: O=C([C@@H]1C[C@H](N2CCC(c3nnnn3-c3ccccc3)CC2)CN1)N1CCSC1
- IC50 (Dipeptidyl peptidase 4): 2.9 nM

Compound: O=C([C@@H]1C[C@H](N2CCN(c3ccccn3)CC2)CN1)N1CCSC1
- inhibition in vivo at 3 µmol/kg (Rattus norvegicus [1]): 62.7%
- inhibition in vivo at 3 µmol/kg (Rattus norvegicus [2]): 19.7%

Compound: O=C([C@@H]1C[C@H](N2CCC(c3cc(C(F)(F)F)nn3-c3ccccc3)CC2)CN1)N1CCSC1
- IC50 (Dipeptidyl peptidase 4): 2.5 nM

Compound: Br.Cc1cc(N2CCN([C@@H]3CN[C@H](C(=O)N4CCSC4)C3)CC2)n(-c2ccccc2)n1
- AUC(0-inf) [8]: 1570 ng·h/mL
- bioavailability [9]: 85.9%
- AUC(0-inf) [10]: 295 ng·h/mL
- AUC(0-inf) [11]: 613 ng·h/mL
- AUC(0-inf) [12]: 673 ng·h/mL
- Tmax [13]: 0.88 h
- Tmax [14]: 0.75 h
- Tmax [15]: 0.75 h
- Tmax [16]: 0.5 h
- Tmax [17]: 1.38 h
- Tmax [18]: 0.88 h
- Cmax [19]: 5.48 ng/mL
- Cmax [20]: 20.6 ng/mL
- Cmax [21]: 152 ng/mL
- Cmax [22]: 28.3 ng/mL
- Cmax [23]: 85.1 ng/mL
- Cmax [24]: 274 ng/mL
- half-life [25]: 15.8 h
- half-life [26]: 8.97 h
- half-life [27]: 8.43 h
- half-life [28]: 18.9 h
- half-life [29]: 15.2 h
- half-life [30]: 16.1 h
- AUC(0-inf) [31]: 91.8 ng·h/mL
- AUC(0-inf) [32]: 202 ng·h/mL
- bioavailability [33]: 63%
- bioavailability [34]: 62.9%
- bioavailability [35]: 83.2%
- bioavailability [36]: 57.6%
- bioavailability [37]: 44.1%

Compound: O=C([C@@H]1C[C@H](N2CCN(c3cc(C(F)(F)F)nn3-c3ccccc3)CC2)CN1)N1CCSC1
- inhibition in vivo at 3 µmol/kg (Rattus norvegicus [1]): 87.4%
- inhibition in vivo at 3 µmol/kg (Rattus norvegicus [2]): 81.8%

Compound: Cc1cc(N2CCN([C@@H]3CN[C@H](C(=O)N4CCSC4)C3)CC2)n(-c2ccccc2)n1 [TENELIGLIPTIN]
- inhibition in vivo at 3 µmol/kg (Rattus norvegicus [1]): 94.8%
- inhibition in vivo at 3 µmol/kg (Rattus norvegicus [2]): 78.3%

Compound: O=C([C@@H]1C[C@H](N2CCN(c3nnnn3-c3ccccc3)CC2)CN1)N1CCSC1
- IC50 (Dipeptidyl peptidase 4): 0.18 nM
- inhibition in vivo at 3 µmol/kg (Rattus norvegicus [1]): 85.1%
- inhibition in vivo at 3 µmol/kg (Rattus norvegicus [2]): 70.7%

Compound: O=C([C@@H]1C[C@H](N2CCN(c3nc(-c4ccccc4)cs3)CC2)CN1)N1CCSC1
- IC50 (Dipeptidyl peptidase 4): 5.4 nM

Compound: O=C([C@@H]1C[C@H](N2CCN(c3ccnn3-c3ccccc3)CC2)CN1)N1CCSC1
- IC50 (Dipeptidyl peptidase 4): 0.69 nM
- inhibition in vivo at 3 µmol/kg (Rattus norvegicus [1]): 90.6%
- inhibition in vivo at 3 µmol/kg (Rattus norvegicus [2]): 50.8%

Compound: Cc1cc(N2CCN([C@@H]3CN[C@H](C(=O)N4CCSC4)C3)CC2)n(-c2ccccn2)n1
- inhibition in vivo at 3 µmol/kg (Rattus norvegicus [1]): 83%
- inhibition in vivo at 3 µmol/kg (Rattus norvegicus [2]): 53.7%

The next lines start with results.

- IC50 (Dipeptidyl peptidase 4): 14 nM
Compound: Cc1cc(N2CCN([C@@H]3CN[C@H](C(=O)N4CCSC4)C3)CC2)n(-c2ccc(C#N)cn2)n1

- IC50 (Dipeptidyl peptidase 4): 4.7 nM
Compound: Cc1cc(N2CCN([C@@H]3CN[C@H](C(=O)N4CCSC4)C3)CC2)n(-c2ccncc2)n1

- IC50 (Dipeptidyl peptidase 4): 0.53 nM
Compound: Cc1cc(N2CCN([C@@H]3CN[C@H](C(=O)N4CCSC4)C3)CC2)n(-c2ccccc2F)n1
- inhibition in vivo at 3 µmol/kg (Rattus norvegicus [1]): 75.9%
- inhibition in vivo at 3 µmol/kg (Rattus norvegicus [2]): 34.7%

- IC50 (Dipeptidyl peptidase 4): 0.77 nM
Compound: Cc1cc(N2CCN([C@@H]3CN[C@H](C(=O)N4CCSC4)C3)CC2)n(-c2cccnc2)n1
- inhibition in vivo at 3 µmol/kg (Rattus norvegicus [1]): 66.9%
- inhibition in vivo at 3 µmol/kg (Rattus norvegicus [2]): 40.8%

- IC50 (Dipeptidyl peptidase 4): 0.49 nM
Compound: Cc1cc(N2CCN([C@@H]3CN[C@H](C(=O)N4CCSC4)C3)CC2)n(-c2cccc(F)c2)n1
- inhibition in vivo at 3 µmol/kg (Rattus norvegicus [1]): 96.1%
- inhibition in vivo at 3 µmol/kg (Rattus norvegicus [2]): 75.1%

- IC50 (Dipeptidyl peptidase 4): 13 nM
Compound: Cc1cc(N2CCN([C@@H]3CN[C@H](C(=O)N4CCSC4)C3)CC2)n(-c2ccc(C#N)cc2)n1

- IC50 (Dipeptidyl peptidase 4): 2.9 nM
Compound: Cc1cc(N2CCN([C@@H]3CN[C@H](C(=O)N4CCSC4)C3)CC2)n(-c2ccc(Cl)cc2)n1
